In ChEMBL document CHEMBL1127919 (Bioorg Med Chem Lett, 1994):
Activity calls are given as the source filed them. No cut-off for these calls is given here.

Experiments:
Melatonin receptor = Melatonin receptor (Gallus gallus, UniProt P49288+P51050+P49285); assay: Binding affinity towards melatonin receptor was determined using 2-[125I]iodomelatonin as radioligand in chick brain membranes; assay type: cell membranes, Membrane
Xenopus laevis [1] = organism: Xenopus laevis; assay: Agonistic activity was determined in a pigment aggregation model using cultured melanophores isolated from the neural crest of Xenopus laevis embryos.; assay type: functional; conditions: frog; filed as agonist
Xenopus laevis [2] = organism: Xenopus laevis; assay: Agonistic activity was determined in a pigment aggregation model using cultured melanophores isolated from the neural crest of Xenopus laevis embryos; mixed; assay type: functional; conditions: frog; filed as partial agonist
Xenopus laevis [3] = organism: Xenopus laevis; assay: Agonistic activity was determined in a pigment aggregation model using cultured melanophores isolated from the neural crest of Xenopus laevis embryos; assay type: functional, frog
Xenopus laevis [4] = organism: Xenopus laevis; assay: Agonistic activity was determined in a pigment aggregation model using cultured melanophores isolated from the neural crest of Xenopus laevis embryos; partial agonist; assay type: functional; conditions: frog; filed as partial agonist
Xenopus laevis [5] = organism: Xenopus laevis; assay: Agonistic activity was determined in a pigment aggregation model using cultured melanophores isolated from the neural crest of Xenopus laevis embryos; inactive; assay type: functional; conditions: frog

Compound	Ki (Melatonin receptor) [nM]	Activity (Xenopus laevis [1])	also measured
COc1ccc2c(c1)c1c(n2C)CCCC1NC(=O)C1CCC1 (stereo not given)	271	Agonist	
COc1ccc2c(c1)c1c(n2C)CCCC1NC(C)=O (stereo not given)	0.97	Agonist	
Cn1c2c(c3ccccc31)C(NC(=O)C1CC1)CCC2 (stereo not given)	4460	Agonist	
COc1ccc2[nH]c3c(c2c1)CC(NC(=O)CBr)CC3 (stereo not given)	8.3		Activity (Xenopus laevis [2]): Partial agonist
COc1ccc2[nH]c3c(c2c1)CC(NC(C)=O)CC3 (stereo not given)	219	Agonist	
O=C(NC1CCc2[nH]c3ccccc3c2C1)C(F)(F)F (stereo not given)	4630		
CCCC(=O)NC1CCCc2c1c1cc(OC)ccc1n2C (stereo not given)	0.378	Agonist	EC50 (Xenopus laevis [3]): 2.5 nM
CCCCC(=O)NC1CCCc2c1c1ccccc1n2C (stereo not given)	> 10000	Agonist	
COc1ccc2c(c1)c1c(n2C)CCCC1NC(=O)C(F)(F)F (stereo not given)	1.98	Agonist	
CCC(Br)C(=O)NC1CCc2[nH]c3ccccc3c2C1 (stereo not given)	> 10000		
CCC(=O)NC1CCCc2c1c1ccccc1n2C (stereo not given)	204	Agonist	
COc1ccc2[nH]c3c(c2c1)CC(NC(=O)C1CC1)CC3 (stereo not given)	570	Agonist	
CCC(=O)NC1CCc2[nH]c3ccccc3c2C1 (stereo not given)	436		EC50 (Xenopus laevis [3]): > 10000 nM; Activity (Xenopus laevis [4]): Partial agonist
CCCC(=O)NC1CCCc2c1c1ccccc1n2C (stereo not given)	215	Agonist	
CC(=O)NC1CCCc2c1c1ccccc1n2C (stereo not given)	227	Agonist	
COc1ccc2[nH]c3c(c2c1)CC(NC(=O)C(F)(F)F)CC3 (stereo not given)	102		
COc1ccc2c(c1)c(CCNC(C)=O)cn2C	254		
CC(=O)NC1CCc2[nH]c3ccccc3c2C1 (stereo not given)	5350		
CCCC(=O)NC1CCc2[nH]c3ccccc3c2C1 (stereo not given)	1060		Activity (Xenopus laevis [5]): inactive
O=C(CBr)NC1CCc2[nH]c3ccccc3c2C1 (stereo not given)	740		EC50 (Xenopus laevis [3]): < 1000 nM; Activity (Xenopus laevis [4]): Partial agonist
CCCCC(=O)NC1CCCc2c1c1cc(OC)ccc1n2C (stereo not given)	82	Agonist	
COc1ccc2c(c1)c1c(n2C)CCCC1NC(=O)C1CC1 (stereo not given)	30	Agonist	
CCC(=O)NC1CCCc2c1c1cc(OC)ccc1n2C (stereo not given)	1.44	Agonist	
CCC(=O)NC1CCc2[nH]c3ccc(OC)cc3c2C1 (stereo not given)	41		
CCCC(=O)NC1CCc2[nH]c3ccc(OC)cc3c2C1 (stereo not given)	560	Agonist	EC50 (Xenopus laevis [3]): 10000 nM
Cn1c2c(c3ccccc31)C(NC(=O)C(F)(F)F)CCC2 (stereo not given)	766	Agonist	
